Key:
Assay in all cases: relative viability (nuclei count vs DMSO), 5 days (fraction); higher = more cells survive
Gemcitabine + Decitabine = compound: Nc1ccn([C@@H]2O[C@H](CO)[C@@H](O)C2(F)F)c(=O)n1 [Gemcitabine] + Nc1ncn([C@H]2C[C@H](O)[C@@H](CO)O2)c(=O)n1 [Decitabine] (partner 2 µM)
Summary of the method: (§1)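 Nuclei were stained with Hoechst during a one-step fixation (final 0.05% Triton X-100, 1% formaldehyde, 1 ug/ml Hoechst) carried out 5 days after dosing, then counted on 4× images. The cells, lung cancer lines in 1536-well plates, had been dosed by pin tool the day after seeding with one drug alone or a fixed anchor-drug dose plus five library-drug doses (not always all listed) in √10 steps. Relative viability is the nuclei count in treated wells divided by that in vehicle wells, and each value is the median of duplicate plates.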

Gemcitabine + Lapatinib = compound: Nc1ccn([C@@H]2O[C@H](CO)[C@@H](O)C2(F)F)c(=O)n1 [Gemcitabine] + CS(=O)(=O)CCNCc1ccc(-c2ccc3ncnc(Nc4ccc(OCc5cccc(F)c5)c(Cl)c4)c3c2)o1 [Lapatinib] (partner 2 µM)
Summary of the method: as §1

Gemcitabine + AZD7762 = compound: Nc1ccn([C@@H]2O[C@H](CO)[C@@H](O)C2(F)F)c(=O)n1 [Gemcitabine] + NC(=O)Nc1cc(-c2cccc(F)c2)sc1C(=O)N[C@H]1CCCNC1 [AZD7762] (partner 0.2 µM)
Summary of the method: as §1

Gemcitabine + Bortezomib = compound: Nc1ccn([C@@H]2O[C@H](CO)[C@@H](O)C2(F)F)c(=O)n1 [Gemcitabine] + CC(C)C[C@H](NC(=O)[C@H](Cc1ccccc1)NC(=O)c1cnccn1)B(O)O [Bortezomib] (partner 0.002 µM)
Summary of the method: as §1

Cell Line: NCI-H1993
- relative viability (Gemcitabine + Decitabine; first compound 0.001 µM): 0.549
- relative viability (Gemcitabine + Decitabine; first compound 0.003162 µM): 0.524
- relative viability (Gemcitabine + Decitabine; first compound 0.01 µM): 0.564
- relative viability (Gemcitabine + Decitabine; first compound 0.03162 µM): 0.44
- relative viability (Gemcitabine + Decitabine; first compound 0.1 µM): 0.356
- relative viability (Gemcitabine + Lapatinib; first compound 0.001 µM): 0.77
- relative viability (Gemcitabine + Lapatinib; first compound 0.003162 µM): 0.769
- relative viability (Gemcitabine + Lapatinib; first compound 0.01 µM): 0.853
- relative viability (Gemcitabine + Lapatinib; first compound 0.03162 µM): 0.546
- relative viability (Gemcitabine + Lapatinib; first compound 0.1 µM): 0.495
- relative viability (Gemcitabine + AZD7762; first compound 0.001 µM): 0.74
- relative viability (Gemcitabine + AZD7762; first compound 0.003162 µM): 0.483
- relative viability (Gemcitabine + AZD7762; first compound 0.01 µM): 0.398
- relative viability (Gemcitabine + AZD7762; first compound 0.03162 µM): 0.439
- relative viability (Gemcitabine + AZD7762; first compound 0.1 µM): 0.346
- relative viability (Gemcitabine + Bortezomib; first compound 0.001 µM): 1.08
- relative viability (Gemcitabine + Bortezomib; first compound 0.003162 µM): 1.15
- relative viability (Gemcitabine + Bortezomib; first compound 0.01 µM): 0.713
- relative viability (Gemcitabine + Bortezomib; first compound 0.03162 µM): 0.524
- relative viability (Gemcitabine + Bortezomib; first compound 0.1 µM): 0.446

Cell Line: NCI-H2085
- relative viability (Gemcitabine + Decitabine; first compound 0.001 µM): 0.583
- relative viability (Gemcitabine + Decitabine; first compound 0.003162 µM): 0.507
- relative viability (Gemcitabine + Decitabine; first compound 0.01 µM): 0.486
- relative viability (Gemcitabine + Decitabine; first compound 0.03162 µM): 0.425
- relative viability (Gemcitabine + Decitabine; first compound 0.1 µM): 0.428
- relative viability (Gemcitabine + Lapatinib; first compound 0.001 µM): 0.811
- relative viability (Gemcitabine + Lapatinib; first compound 0.003162 µM): 0.811
- relative viability (Gemcitabine + Lapatinib; first compound 0.01 µM): 0.668
- relative viability (Gemcitabine + Lapatinib; first compound 0.03162 µM): 0.434
- relative viability (Gemcitabine + Lapatinib; first compound 0.1 µM): 0.302
- relative viability (Gemcitabine + AZD7762; first compound 0.001 µM): 0.949
- relative viability (Gemcitabine + AZD7762; first compound 0.003162 µM): 0.847
- relative viability (Gemcitabine + AZD7762; first compound 0.01 µM): 0.613
- relative viability (Gemcitabine + AZD7762; first compound 0.03162 µM): 0.337
- relative viability (Gemcitabine + AZD7762; first compound 0.1 µM): 0.271
- relative viability (Gemcitabine + Bortezomib; first compound 0.001 µM): 1.02
- relative viability (Gemcitabine + Bortezomib; first compound 0.003162 µM): 0.964
- relative viability (Gemcitabine + Bortezomib; first compound 0.01 µM): 0.897
- relative viability (Gemcitabine + Bortezomib; first compound 0.03162 µM): 0.682
- relative viability (Gemcitabine + Bortezomib; first compound 0.1 µM): 0.405

Cell Line: NCI-H2087
- relative viability (Gemcitabine + Decitabine; first compound 0.001 µM): 0.283
- relative viability (Gemcitabine + Decitabine; first compound 0.003162 µM): 0.307
- relative viability (Gemcitabine + Decitabine; first compound 0.01 µM): 0.179
- relative viability (Gemcitabine + Decitabine; first compound 0.03162 µM): 0.086
- relative viability (Gemcitabine + Decitabine; first compound 0.1 µM): 0.0869
- relative viability (Gemcitabine + Lapatinib; first compound 0.001 µM): 0.9
- relative viability (Gemcitabine + Lapatinib; first compound 0.003162 µM): 0.814
- relative viability (Gemcitabine + Lapatinib; first compound 0.01 µM): 0.396
- relative viability (Gemcitabine + Lapatinib; first compound 0.03162 µM): 0.17
- relative viability (Gemcitabine + Lapatinib; first compound 0.1 µM): 0.161
- relative viability (Gemcitabine + AZD7762; first compound 0.001 µM): 1.1
- relative viability (Gemcitabine + AZD7762; first compound 0.003162 µM): 0.145
- relative viability (Gemcitabine + AZD7762; first compound 0.01 µM): 0.144
- relative viability (Gemcitabine + AZD7762; first compound 0.03162 µM): 0.111
- relative viability (Gemcitabine + AZD7762; first compound 0.1 µM): 0.104
- relative viability (Gemcitabine + Bortezomib; first compound 0.001 µM): 0.743
- relative viability (Gemcitabine + Bortezomib; first compound 0.003162 µM): 0.569
- relative viability (Gemcitabine + Bortezomib; first compound 0.01 µM): 0.581
- relative viability (Gemcitabine + Bortezomib; first compound 0.03162 µM): 0.155
- relative viability (Gemcitabine + Bortezomib; first compound 0.1 µM): 0.166

Cell Line: NCI-H2126
- relative viability (Gemcitabine + Decitabine; first compound 0.001 µM): 0.604
- relative viability (Gemcitabine + Decitabine; first compound 0.003162 µM): 0.546
- relative viability (Gemcitabine + Decitabine; first compound 0.01 µM): 0.546
- relative viability (Gemcitabine + Decitabine; first compound 0.03162 µM): 0.423
- relative viability (Gemcitabine + Decitabine; first compound 0.1 µM): 0.299
- relative viability (Gemcitabine + Lapatinib; first compound 0.001 µM): 0.704
- relative viability (Gemcitabine + Lapatinib; first compound 0.003162 µM): 0.764
- relative viability (Gemcitabine + Lapatinib; first compound 0.01 µM): 0.738
- relative viability (Gemcitabine + Lapatinib; first compound 0.03162 µM): 0.615
- relative viability (Gemcitabine + Lapatinib; first compound 0.1 µM): 0.394
- relative viability (Gemcitabine + AZD7762; first compound 0.001 µM): 0.995
- relative viability (Gemcitabine + AZD7762; first compound 0.003162 µM): 1.03
- relative viability (Gemcitabine + AZD7762; first compound 0.01 µM): 0.891
- relative viability (Gemcitabine + AZD7762; first compound 0.03162 µM): 0.265
- relative viability (Gemcitabine + AZD7762; first compound 0.1 µM): 0.205
- relative viability (Gemcitabine + Bortezomib; first compound 0.001 µM): 1.05
- relative viability (Gemcitabine + Bortezomib; first compound 0.003162 µM): 1.1
- relative viability (Gemcitabine + Bortezomib; first compound 0.01 µM): 1.04
- relative viability (Gemcitabine + Bortezomib; first compound 0.03162 µM): 0.985
- relative viability (Gemcitabine + Bortezomib; first compound 0.1 µM): 0.67

Cell Line: NCI-H2347
- relative viability (Gemcitabine + Decitabine; first compound 0.001 µM): 0.537
- relative viability (Gemcitabine + Decitabine; first compound 0.003162 µM): 0.645
- relative viability (Gemcitabine + Decitabine; first compound 0.01 µM): 0.58
- relative viability (Gemcitabine + Decitabine; first compound 0.03162 µM): 0.478
- relative viability (Gemcitabine + Decitabine; first compound 0.1 µM): 0.539
- relative viability (Gemcitabine + Lapatinib; first compound 0.001 µM): 0.952
- relative viability (Gemcitabine + Lapatinib; first compound 0.003162 µM): 0.896
- relative viability (Gemcitabine + Lapatinib; first compound 0.01 µM): 0.646
- relative viability (Gemcitabine + Lapatinib; first compound 0.03162 µM): 0.655
- relative viability (Gemcitabine + Lapatinib; first compound 0.1 µM): 0.467
- relative viability (Gemcitabine + AZD7762; first compound 0.001 µM): 0.494
- relative viability (Gemcitabine + AZD7762; first compound 0.003162 µM): 0.468
- relative viability (Gemcitabine + AZD7762; first compound 0.01 µM): 0.205
- relative viability (Gemcitabine + AZD7762; first compound 0.03162 µM): 0.217
- relative viability (Gemcitabine + AZD7762; first compound 0.1 µM): 0.233
- relative viability (Gemcitabine + Bortezomib; first compound 0.001 µM): 0.621
- relative viability (Gemcitabine + Bortezomib; first compound 0.003162 µM): 0.961
- relative viability (Gemcitabine + Bortezomib; first compound 0.01 µM): 0.534
- relative viability (Gemcitabine + Bortezomib; first compound 0.03162 µM): 0.653
- relative viability (Gemcitabine + Bortezomib; first compound 0.1 µM): 0.401

From the supplement of paper PMC10307832
